Data set [1] relates to sludge in the sewage treatment plant. Nature of the data set: Bactericidal test on sludge (MTT method). The class given is cell-based. The conditions noted are these: 24 hr and 48 hr, about 25° C., visual and MTT. How it is done: Glucose, peptone, and monopotassium dihydrogen phosphate (each 5 g) were dissolved in water (1 L), and adjusted to pH 7.0±1.0 with sodium hydroxide to give synthetic sewer water, to which sludge in the sewage treatment plant in Mizushima area, Kurashiki-shi, Okayama-ken, Japan, was added at 30 ppm based on dry mass, whereby a bacterial culture was prepared. On the other hand, a test substance was diluted with distilled water in 10 phases to a final concentration of 1000-0.004 ppm (geometric ratio=4) on a 24 well microplate, and used as a test solution. Two wells were used for each concentration. As a comparison target, distilled water+bacterial culture was used as “bacterial culture blank”, and distilled water alone was used as “blank”.
The bacterial culture and test solution prepared above were mixed at a volume ratio 1:1, stood in a thermostatic tank at ambient temperature (about 25° C.) for 24 hr and 48 hr, and the level of sludge influence at each concentration of the test substance was visually observed and confirm by the MTT method. MTT reagent is converted by microorganism mitochondria in the sludge, forms formazan and develops a blue color.

The subject of data set [2] is Pseudokirchneriella subcapitata. Briefly: Toxicity test on algae (algae growth inhibitory test, OECD 201). The class given is cell-based. The conditions noted are these: Selenastrum capricornutum; 72 hr, 23° C., growth inhibition; read-out: ErC50 (72 hr). How it is done:
By reference to the OECD test guideline No. 201, an algae growth inhibitory test of a test substance was performed. To be specific, the following test substance was diluted with a test medium to give a defined dose. A suspension of algae grown to the exponential growth phase by preculture was added at an initial concentration of 1×10^4 cells/ml. After shaking culture in a light irradiation-type bio shaker (Bio Shaker BR-180 LF manufactured by TAITEC) at 23° C., algae cells were counted by a flow cytometer (Cell Lab Quant SC manufactured by BECKMAN COULTER) at 24, 48, and 72 hr from the start of the test, and the growth degree of each test dose was calculated based on the growth degree of the normal control as 100%. Also, ErC50 was calculated from the equation of the approximate curve in a graph plotting the growth inhibitory rate. As a standard substance, potassium dichromate was used.
algae: Pseudokirchneriella subcapitata
test substance (1) and test substance (2), 100, 32, 10, 3.2, 1, 0.32 mg/L (geometric ratio: √{square root over ( )}10) and 0 mg/L (normal control), respectively
standard substance: 3.2, 1, 0.32 mg/L and 0 mg/L (normal control)

The test system of another data set is male CRj:CD(SD) rats. Briefly: Oral toxicity test (14-day repeated dose). In kind it is in vivo, rat. The conditions noted are these: for NOEL (No Observed Effect Level): oral gavage once per day for 14 days, male rats. The source says:
A test substance was emulsified and dispersed in 2%-gum arabic aqueous solution (containing 0.5%-Tween80), and forcibly administered to 6-week-old male CRj:CD(SD) rats with an oral gavage needle once per day for 14 days. The body weight variation and general condition were observed during the dosing period. The rats were fasted for one day from the final administration day (with free ingestion of drinking water), and anatomy, collection of blood samples (various blood tests), and mass measurement of the major organs were performed the next day of the final administration. In addition, histopathological examination (optical microscopic observation of HE-stained sliced section) of the liver, kidney, spleen and testis was also performed. The dose was 1000, 250, 60, 15 or 0 mg/k day (administered liquid amount=1 ml/100 g (body weight)/day), and 5 rats were used for each dose.

Each structure is given as a SMILES string. Converted amounts (≈) assume the structure as drawn.

In data set [1], `O=CCCCC=O` [glutaraldehyde] had a sterilizing concentration of 63 ppm. For the same compound, the EC50 in data set [2] amounted to 9 µg/mL (≈ 89.9 µM). The “NOEL (No Observed Effect Level)” value with male CRj:CD(SD) rats amounted to 5 mg/kg.

Turning to `O=CCCCCCCCC=O` [NL, 1,9-nonanedial], the death case entry in the data set on male CRj:CD(SD) rats (maximum dose of 1000 mg/kg/day, oral, 14 days) was “death case was not found”. Besides, the “NOEL (No Observed Effect Level)” value with male CRj:CD(SD) rats was 250 mg/kg.
